Assay results: the NIST ThermoML archive (doi:10.1021/acs.jced.8b00812)
± gives the expanded uncertainty stated by the source.

Conditions: Liquid; for viscosity: Capillary tube (Ostwald / Ubbelohde) method; for mass density: Vibrating tube method

CCCCO [butan-1-ol]
Conditions	mass density [kg/m3]	viscosity [mPa·s]
298.12 K, 2010 kPa	806.8 ± 0.8	2.608 ± 0.027
298.12 K, 3910 kPa	808.2 ± 0.8	2.657 ± 0.028
298.12 K, 6020 kPa	809.8 ± 0.8	2.708 ± 0.028
298.12 K, 8030 kPa	811.2 ± 0.8	2.752 ± 0.029
298.12 K, 9910 kPa	812.5 ± 0.8	2.797 ± 0.029
298.12 K, 16020 kPa	816.6 ± 0.8	2.94 ± 0.031
298.12 K, 19030 kPa	818.5 ± 0.8	3.018 ± 0.031
298.12 K, 22000 kPa	820.4 ± 0.9	3.092 ± 0.032
298.12 K, 25020 kPa	822.3 ± 0.9	3.166 ± 0.033
298.12 K, 28000 kPa	824 ± 0.9	3.237 ± 0.034
298.12 K, 30010 kPa	825.1 ± 0.9	3.287 ± 0.034
298.13 K, 13010 kPa	814.6 ± 0.8	2.867 ± 0.03
303.15 K, 2010 kPa	803.3 ± 0.8	2.351 ± 0.025
303.15 K, 4000 kPa	804.8 ± 0.8	2.393 ± 0.025
303.15 K, 5980 kPa	806.3 ± 0.8	2.436 ± 0.025
303.15 K, 8010 kPa	807.8 ± 0.8	2.479 ± 0.026
303.15 K, 9990 kPa	809.2 ± 0.8	2.522 ± 0.026
303.15 K, 12990 kPa	811.3 ± 0.8	2.586 ± 0.027
303.15 K, 15990 kPa	813.3 ± 0.8	2.65 ± 0.028
303.15 K, 22010 kPa	817.3 ± 0.9	2.779 ± 0.029
303.15 K, 25010 kPa	819.1 ± 0.9	2.843 ± 0.03
303.15 K, 27970 kPa	820.9 ± 0.9	2.912 ± 0.03
303.15 K, 29990 kPa	822.1 ± 0.9	2.957 ± 0.031
303.16 K, 19000 kPa	815.3 ± 0.8	2.714 ± 0.028
313.15 K, 10020 kPa	801.8 ± 0.8	1.969 ± 0.021
313.15 K, 12980 kPa	803.9 ± 0.8	2.019 ± 0.021
313.15 K, 22020 kPa	810.2 ± 0.8	2.182 ± 0.023
313.15 K, 25010 kPa	812.2 ± 0.9	2.237 ± 0.023
313.16 K, 1990 kPa	795.5 ± 0.8	1.832 ± 0.019
313.16 K, 3980 kPa	797.1 ± 0.8	1.868 ± 0.02
313.16 K, 5990 kPa	798.7 ± 0.8	1.902 ± 0.02
313.16 K, 7980 kPa	800.2 ± 0.8	1.935 ± 0.02
313.16 K, 15980 kPa	806.1 ± 0.8	2.073 ± 0.022
313.16 K, 19010 kPa	808.2 ± 0.8	2.125 ± 0.022
313.16 K, 27990 kPa	814.1 ± 0.9	2.292 ± 0.024
313.16 K, 29990 kPa	815.3 ± 0.9	2.329 ± 0.024
323.14 K, 2000 kPa	787.9 ± 0.8	1.421 ± 0.015
323.14 K, 3920 kPa	789.6 ± 0.8	1.446 ± 0.015
323.14 K, 6030 kPa	791.3 ± 0.8	1.473 ± 0.015
323.14 K, 8000 kPa	792.9 ± 0.8	1.499 ± 0.016
323.14 K, 10020 kPa	794.5 ± 0.8	1.525 ± 0.016
323.14 K, 13040 kPa	796.9 ± 0.8	1.565 ± 0.017
323.14 K, 16050 kPa	799.2 ± 0.8	1.603 ± 0.017
323.14 K, 19000 kPa	801.3 ± 0.8	1.646 ± 0.017
323.14 K, 21990 kPa	803.4 ± 0.8	1.684 ± 0.018
323.14 K, 24970 kPa	805.5 ± 0.9	1.723 ± 0.018
323.14 K, 28000 kPa	807.5 ± 0.9	1.759 ± 0.018
323.14 K, 29970 kPa	808.8 ± 0.9	1.785 ± 0.019

CCCCCCCO [heptan-1-ol]
Conditions	mass density [kg/m3]	viscosity [mPa·s]
298.15 K, 2000 kPa	820.2 ± 0.9	5.971 ± 0.069
298.15 K, 4020 kPa	821.4 ± 0.9	6.1 ± 0.071
298.15 K, 6010 kPa	822.8 ± 0.9	6.229 ± 0.072
298.15 K, 8000 kPa	824 ± 0.9	6.364 ± 0.073
298.15 K, 10000 kPa	825.3 ± 0.9	6.484 ± 0.075
298.15 K, 13000 kPa	827.1 ± 0.9	6.686 ± 0.077
298.15 K, 16000 kPa	828.9 ± 0.9	6.881 ± 0.079
298.15 K, 19000 kPa	830.7 ± 0.9	7.084 ± 0.081
298.15 K, 22000 kPa	832.5 ± 0.9	7.293 ± 0.084
298.15 K, 25000 kPa	834.2 ± 0.9	7.516 ± 0.086
298.15 K, 28000 kPa	835.9 ± 0.9	7.72 ± 0.088
298.15 K, 29990 kPa	836.9 ± 0.9	7.864 ± 0.09
303.16 K, 2030 kPa	816.5 ± 0.9	5.186 ± 0.06
303.16 K, 4030 kPa	817.9 ± 0.9	5.302 ± 0.062
303.16 K, 6040 kPa	819.3 ± 0.9	5.42 ± 0.063
303.16 K, 7980 kPa	820.5 ± 0.9	5.534 ± 0.064
303.16 K, 9990 kPa	821.8 ± 0.9	5.651 ± 0.066
303.16 K, 12990 kPa	823.6 ± 0.9	5.826 ± 0.067
303.16 K, 16020 kPa	825.5 ± 0.9	6.004 ± 0.069
303.16 K, 19020 kPa	827.3 ± 0.9	6.179 ± 0.071
303.16 K, 22000 kPa	829.2 ± 0.9	6.353 ± 0.073
303.16 K, 24980 kPa	830.9 ± 0.9	6.527 ± 0.075
303.16 K, 27980 kPa	832.5 ± 0.9	6.703 ± 0.077
303.16 K, 30010 kPa	833.7 ± 0.9	6.822 ± 0.079
313.15 K, 2000 kPa	809.2 ± 0.8	3.763 ± 0.044
313.15 K, 4000 kPa	810.6 ± 0.9	3.848 ± 0.045
313.15 K, 5980 kPa	811.9 ± 0.9	3.932 ± 0.046
313.15 K, 7980 kPa	813.3 ± 0.9	4.017 ± 0.047
313.15 K, 9970 kPa	814.6 ± 0.9	4.101 ± 0.048
313.15 K, 13030 kPa	816.5 ± 0.9	4.231 ± 0.049
313.15 K, 16020 kPa	818.4 ± 0.9	4.358 ± 0.051
313.15 K, 19000 kPa	820.4 ± 0.9	4.484 ± 0.052
313.15 K, 22020 kPa	822.2 ± 0.9	4.613 ± 0.054
313.15 K, 25010 kPa	824 ± 0.9	4.739 ± 0.055
313.15 K, 27980 kPa	825.7 ± 0.9	4.865 ± 0.057
313.15 K, 30010 kPa	826.9 ± 0.9	4.952 ± 0.058
323.15 K, 1990 kPa	802.1 ± 0.8	2.748 ± 0.032
323.15 K, 4010 kPa	803.4 ± 0.8	2.812 ± 0.033
323.15 K, 5990 kPa	804.8 ± 0.9	2.876 ± 0.034
323.15 K, 8010 kPa	806.2 ± 0.9	2.94 ± 0.034
323.15 K, 10010 kPa	807.6 ± 0.9	2.997 ± 0.035
323.15 K, 13000 kPa	809.7 ± 0.9	3.088 ± 0.036
323.15 K, 16000 kPa	811.8 ± 0.9	3.179 ± 0.037
323.15 K, 18990 kPa	813.7 ± 0.9	3.266 ± 0.038
323.15 K, 22000 kPa	815.6 ± 0.9	3.358 ± 0.039
323.15 K, 25000 kPa	817.4 ± 0.9	3.451 ± 0.04
323.15 K, 28000 kPa	819.3 ± 0.9	3.542 ± 0.042
323.15 K, 30000 kPa	820.5 ± 0.9	3.607 ± 0.042
